The source of these data is ChEMBL document CHEMBL1153505, “Free and bound state structures of 6-O-methyl homoerythromycins and epitope mapping of their interactions with ribosomes” (Bioorg Med Chem, 2009).

A word on the IC50: it is the concentration needed to halve the response being measured.

This experiment has as its target Bacterial 70S ribosome. The experiment is described as follows: Inhibition of Escherichia coli ribosome. The experiment is classed as subcellular.
Turning to `CC[C@H]1OC(=O)[C@H](C)[C@@H](O)[C@H](C)[C@@H](O[C@@H]2O[C@H](C)C[C@H](N(C)C)[C@H]2O)[C@](C)(OC)C[C@@H](C)NC(=O)[C@H](C)[C@@H](O)[C@]1(C)O`, the half-inhibitory concentration (IC50) was greater than 100000 nM.

In the case of `CC[C@H]1OC(=O)[C@H](C)[C@@H](O)[C@H](C)[C@@H](O[C@@H]2O[C@H](C)C[C@H](N(C)C)[C@H]2O)[C@](C)(OC)C[C@@H](C)C(=O)N[C@H](C)[C@@H](O)[C@]1(C)O`, the half-maximal inhibitory concentration (IC50) is greater than 100000 nM. Consider `CC[C@H]1OC(=O)[C@H](C)[C@@H](O[C@H]2C[C@@](C)(OC)[C@@H](O)[C@H](C)O2)[C@H](C)[C@@H](O[C@@H]2O[C@H](C)C[C@H](N(C)C)[C@H]2O)[C@](C)(OC)C[C@@H](C)C(=O)N[C@H](C)[C@@H](O)[C@]1(C)O`, for which the IC50 is 1300 nM. To `CC[C@H]1OC(=O)[C@H](C)[C@@H](O[C@H]2C[C@@](C)(OC)[C@@H](O)[C@H](C)O2)[C@H](C)[C@@H](O[C@@H]2O[C@H](C)C[C@H](N(C)C)[C@H]2O)[C@](C)(O)C[C@@H](C)CN(C)[C@H](C)[C@@H](O)[C@]1(C)O` [AZITHROMYCIN] belongs 300 nM.

In turn, `CC[C@H]1OC(=O)[C@H](C)[C@@H](O[C@H]2C[C@@](C)(OC)[C@@H](O)[C@H](C)O2)[C@H](C)[C@@H](O[C@@H]2O[C@H](C)C[C@H](N(C)C)[C@H]2O)[C@](C)(OC)C[C@@H](C)NC(=O)[C@H](C)[C@@H](O)[C@]1(C)O` showed an IC50 of 100 nM.
